Among the data in ChEMBL document CHEMBL4138292, “Metabolomics-Guided Discovery of Microginin Peptides from Cultures of the Cyanobacterium Microcystis aeruginosa” (J Nat Prod, 2018) are IC50 values, retold here.

Angiotensin-converting enzyme, sequence (P12821 whole entry): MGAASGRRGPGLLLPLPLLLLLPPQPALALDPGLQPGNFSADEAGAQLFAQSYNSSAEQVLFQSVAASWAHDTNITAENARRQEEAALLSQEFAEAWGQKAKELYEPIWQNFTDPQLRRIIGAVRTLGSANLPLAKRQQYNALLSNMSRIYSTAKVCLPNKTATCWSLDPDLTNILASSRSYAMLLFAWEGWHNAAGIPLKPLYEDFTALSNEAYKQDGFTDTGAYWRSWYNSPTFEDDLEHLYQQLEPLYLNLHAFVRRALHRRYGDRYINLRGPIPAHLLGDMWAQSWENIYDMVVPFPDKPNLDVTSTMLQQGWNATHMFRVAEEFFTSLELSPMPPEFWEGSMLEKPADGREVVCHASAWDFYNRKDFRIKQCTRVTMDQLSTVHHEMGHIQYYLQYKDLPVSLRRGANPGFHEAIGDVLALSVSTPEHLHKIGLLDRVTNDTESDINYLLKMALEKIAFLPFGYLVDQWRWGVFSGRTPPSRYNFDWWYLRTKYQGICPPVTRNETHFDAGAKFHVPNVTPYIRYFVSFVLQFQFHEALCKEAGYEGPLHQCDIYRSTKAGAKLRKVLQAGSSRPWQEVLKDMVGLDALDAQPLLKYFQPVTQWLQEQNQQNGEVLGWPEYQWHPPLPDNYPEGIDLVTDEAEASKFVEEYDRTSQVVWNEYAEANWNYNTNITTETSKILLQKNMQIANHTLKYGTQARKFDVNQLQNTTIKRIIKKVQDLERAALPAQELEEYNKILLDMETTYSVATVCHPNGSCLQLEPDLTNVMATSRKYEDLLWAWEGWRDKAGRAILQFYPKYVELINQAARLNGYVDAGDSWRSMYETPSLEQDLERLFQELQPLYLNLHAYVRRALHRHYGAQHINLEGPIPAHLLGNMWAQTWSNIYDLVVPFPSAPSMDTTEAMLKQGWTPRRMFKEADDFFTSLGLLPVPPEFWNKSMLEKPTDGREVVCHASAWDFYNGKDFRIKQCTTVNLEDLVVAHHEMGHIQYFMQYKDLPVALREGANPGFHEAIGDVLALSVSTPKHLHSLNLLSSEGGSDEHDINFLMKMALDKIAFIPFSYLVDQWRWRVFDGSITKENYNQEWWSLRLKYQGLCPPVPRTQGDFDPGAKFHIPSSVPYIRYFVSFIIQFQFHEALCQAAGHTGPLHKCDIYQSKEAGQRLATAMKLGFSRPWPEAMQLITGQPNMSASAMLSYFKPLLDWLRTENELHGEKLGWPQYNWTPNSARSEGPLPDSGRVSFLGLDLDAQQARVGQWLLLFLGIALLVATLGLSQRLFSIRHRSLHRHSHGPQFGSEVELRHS

The assay concerns the target Angiotensin-converting enzyme (Homo sapiens, UniProt P12821). In words: Inhibition of ACE (unknown origin) using hippuryl-L-histidyl-L-leucine as substrate preincubated with substrate for 30 mins followed by enzyme addition measured after 30 mins by LC/MS analysis.
Turning to `CCCCCCC[C@H](N)[C@H](O)C(=O)N(C)[C@@H](CC[S+](C)[O-])C(=O)N[C@@H](Cc1ccc(O)cc1)C(=O)O` (stereo partly drawn), the midpoint of inhibition, the IC50, lay at 31 µM.
Consider `CCCCCCC[C@H](N)[C@H](O)C(=O)N[C@@H](C)C(=O)N[C@H](C(=O)O)C(C)C`, for which the IC50 – broadly, the concentration that gives 50% inhibition – came out at 460 µM.
As for `O=C(O)CN(CCN(CC(=O)O)CC(=O)O)CC(=O)O` [EDETIC ACID], the figure is 14 µM.
